Reference: patent publication US10945962B2, “Controlled-release peptide compositions and uses thereof” (BOARD OF REGENTS OF THE UNIVERSITY OF NEBRASKA, priority 2011, dated 2021)
Read-outs that look alike come from different tables or passages of the source. Square brackets hold non-standard residues; d marks the D form. Ends that are not written are not given here. NMeL = CN[C@@H](CC(C)C)C(=O)O

Experiments:
neutrophils = experiment: Neutrophil chemotaxis and myeloperoxidase assay, histopathology of injection site; format: in vivo, CD1 mice; details: for histopathologic analysis of skin tissue: 250 μg s.c., no bacteria
Description: Neutrophil chemotaxis and myeloperoxidase assay. Neutrophil recruitment at the site of injection by EP67 or sEP67 was examined using an in vivo chemotaxis assay as described previously (van Sorge N M, et al., PLoS One 2008; 3:e2964). Briefly, 250 μg EP67 or sEP67 were injected subcutaneously into the right flank of CD1 mice. The injection was repeated after 24 h. Mice were euthanized 4 h after the second injection and the site of injection excised for histopathologic analysis or determination of myeloperoxidase (MPO) activity as described previously (van Sorge N M, et al., supra). The assay was carried out two times and the samples analyzed in duplicate.
Neutrophil influx is essential for the protective action of EP67. […] Neutrophil recruitment to the site of EP67 injection was further analyzed using an in vivo neutrophil recruitment assay as described previously (van Sorge N M, et al., supra; and Banerjee A, et al., Cell Microbiol; 12:1576-1588). Neutrophil migration was assessed in skin homogenates following injection of EP67 or sEP67 by determining the level of neutrophil enzyme myeloperoxidase (MPO), which serves as an effective indication of neutrophil infiltration (Banerjee A, et al., supra; and Bradley P P, et al., J Invest Dermatol 1982; 78:206-209). This method compares well with other in vivo assays of neutrophil chemotaxis (van Sorge N M, et al., supra).

E. coli strain DHSα = experiment: Direct killing of bacteria, OD600 growth curves; format: cell-based; details: for effect on log phase growth (OD600): added at OD600 0.2, 500 μg/m, LB or TSB
Description: E. coli strain DHSα was grown overnight in Lennox Broth (LB). This culture was diluted to an optical density at […] (OD600) of 0.06. The diluted E. coli was dispensed in 1.5 ml aliquots into separate tubes and 1.5 ml of EP67 ([…] ID NO: 4)), EP54 ([…] NO: 3)), scrambled-EP67 (s-EP67) or scrambled-EP54 in LB was added to obtain a final concentration of 500 μg/ml with the E. coli at an OD600 of 0.03. A culture in LB was also prepared. The cultures were incubated at 37° C. with shaking and the OD600 readings recorded hourly. In order to determine whether the growth media altered the effectiveness of EP67, LB was replaced with an alternative growth media, Tryptic Soy Broth (TSB). To test the efficacy of EP67 on bacteria growing in log phase, overnight cultures of DHSα were grown in either LB or TSB. […] DH5α control cultures (absence of additives) were also prepared. The tubes were further shaken at 37° C. and OD600 readings were taken hourly.

[1] = test system: bronchoalveolar lavage (BAL) cells; experiment: Insufflation of EP67 to the lungs, FACS analysis of BAL cells; format: in vivo, mice
Description: In short, EP67 (3 mg/kg) was delivered directly to the lungs of mice through insufflation (IN). Animals were sacrificed one day later. Lungs were lavaged with PBS to isolate the bronchoalveolar lavage (BAL) cells for staining and FACS analysis.

influenza A/A/PR/8 = format: in vivo; details: mice
[2] = test system: anti-influenza antibodies; experiment: ELISA for anti-influenza antibodies on serum; format: in vivo, mice; details: influenza-infected, EP67-treated groups
CA-MRSA strain USA300 = experiment: Mouse model of MRSA dermonecrotic infection (lesion size, bacterial load); format: in vivo, Staphylococcus aureus
[3] = test system: IL-6, TNF-α, INF-γ and KC; experiment: Measurement of cytokines in tissue homogenates by ELISA; format: in vivo, mice
Description: Measurement of cytokines. IL-6, TNF-α, INF-γ and KC inflammatory cytokines were measured in tissue homogenates as previously described using ELISA for IL-6, TNF-α, INF-γ (Morgan E L, et al., Vaccine; 28:8275-8279), or according to manufacturer's protocols (BD and R&D Systems) for KC. Samples were run in triplicate.
Proinflammatory cytokines are enhanced by EP67 treatment. The decrease in lesion size observed in EP67-treated animals indicated an enhanced immune activation in these animals. In order to determine the nature of the immune response activated by EP67 treatment, skin lesions were harvested 48 h post-infection and EP67 or sEP67 treatment, and subjected to ELISA to measure proinflammatory cytokines in tissue homogenates.

[4] = test system: S. aureus (Newman strain); experiment: S. aureus in vitro EP67 killing curves; format: cell-based; details: dilution series, LB
Description: 150 μl of LB growth medium plus 50 μl of EP67 or s-EP67 were added to individual culture wells resulting in a dilution series of 6 wells per EP67 or s-EP67. A “no EP67” well (control) was included at the end of each series. S. aureus (Newman strain) was allowed to grow to an OD600 of 0.4 and each well of the dilution series was inoculated with 5 μl of the culture. Two wells with no bacterial inoculums were included to serve as controls. Plates were incubated at 37° C. with agitation and the OD600 of each well was measured hourly using a plate reader.

GBS = experiment: Group B Streptococcus (GBS) meningitis model; format: in vivo; details: CD1 mice, 250 μg i.p. at day −1, 0, 1 and 2, 96 hours post-injection
Description: 8-week-old female CD1 mice were treated with 250 μg of EP67 or s-EP67 at day −1, 0, 1 and 2 via i.p. injection. GBS was injected i.p. at 1×10^9 cfu/mouse. Brains and blood were harvested from each mouse 96 hours post-injection. The tissue was homogenized, diluted and plated to determine the cfu/g bacteria.

[5] = test system: S. aureus (USA300 LAC strain) biofilm; experiment: Catheter-associated biofilm bacterial burden; format: in vivo; details: C57BL/6 mice, Day 3, relative to sEP67 and PBS vehicle
Description: A S. aureus (USA300 LAC strain) biofilm was established on a hollow catheter (1 cm in length) inserted subcutaneously into C57BL/6 mice by introducing 1000 CFUs of S. aureus into the catheter lumen. At the time of infection, one dose of EP67 (200 μg/ml dissolved in PBS) was introduced. At both 24 and 48 h following infection, a series of four injections of EP67 were made; two into each open end of the catheter (20 μl each) and two along the top and bottom at points perpendicular to the middle of the catheter (50 μl each). Samples of the biofilm and surrounding tissue were obtained at Day 3 and assessed for the presence of viable bacteria by standard culture methods.

BAL cells = details: infected with influenza A/PR/8 and simultaneously treated, one day later
Description: To test the robustness of the EP67 response, mice were treated at the time of influenza infection. Animals were sacrificed one day later for analysis of BAL cells as above.

exMAcs and neutrophils = details: aged lung
Description: Since the aged mouse is considered a strong model for age-related changes in human immunity, the response of aged mice to EP67 insufflation was examined.

MUC1 epitope = experiment: Immunization with MUC1/C5a agonist peptides, serum antibody responses (RIA, ELISA); format: in vivo; details: 100 μg i.p. with RIBI adjuvant, three immunizations, Balb/c and C57B16 mice
Excerpt: Animal Models. The strains of mice used in the studies described in this Example were inbred 6- to 12-week-old C57B16(H-2b) and Balb/c ([…]) females obtained from Jackson Labs (Bar Harbor, Me.). […] The MUC1 peptide selected for these studies contained a motif that may bind to the H-2Kb molecule of the C57B16 mice. Therefore, a strain of mouse that lacked this class I molecule-binding motif (Balb/c) was also studied to determine the relative contribution of the class I-binding motif to the antigen presentation properties of these peptides.
Immunization Protocol. Preimmune sera were obtained from mice, which were subsequently immunized intraperitoneally with 100 μg of the indicated peptide with RIBI adjuvant (MPL+TDM+CWS) (Sigma Immunochemicals). Animals were boosted twice at two-week intervals using the same injection procedure. Sera were obtained following three immunizations (at 6 weeks).
Analysis of Serum Antibody Responses. For radioimmunoassay (RIA), anti-peptide antibodies were determined, before and at different time points after immunization, in 96-well microtiter plates (Dynatech Laboratories, Inc.). Plates were coated with 50 μl of a 100 μg/ml appropriate peptide in phosphate-buffered saline (PBS) pH 7.4 solution overnight at 4° C. The wells were blocked by incubation with 5% dry milk in PBS pH 7.4 for at least two hours. Anti-peptide antibody titers were determined using serial dilutions of sera. […] After washing, specific radioactivity was recorded in a gamma counter (1272 CliniGamma, LKB).
Anti-peptide antibody isotype titers were determined by enzyme-linked immunosorbent assay (ELISA) carried out in 96-well microtiter plates. […] Anti-peptide titers were determined using serial dilutions of sera. […] Again, the plates were washed 4 times with washing buffer and bound enzyme was detected by the addition of 50 μl 1 mg/ml p-nitrophenyl phosphate (Sigma) in 10% diethanolamine (Sigma) pH 9.4. The reaction was stopped by the addition of 50 μl of 0.5 M sodium hydroxide and absorbance values (A405) were determined using Titertek Multiskan (Flow Laboratories, Irvine, Scotland). […]

[6] = EP67 3 mg/kg insufflation, one day later
[7] = 48 h post-infection, compared to sEP67

(MeL)RMYKPaFDS [sEP67, reference compound]
histopathologic analysis of skin tissue (neutrophils): normal pathology
effect on log phase growth (OD600) (E. coli strain DHSα): little or no effect on growth

Tyr-Ser-Phe-Lys-Asp-Met-Pro-MeL-(D-Ala)-Arg (YSFKDMP[NMeL][dA]R; listed as Homo sapiens) [EP67]
CD11b+CD11c− cells (GR-1+ neutrophils) in the alveolar space [1, 6]: a large population of CD11b^+CD11c^− cells appeared in the alveolar space
exudate macrophages (exMac) in BAL cells [1, 6]: appearance of cells bearing the CD11b^+CD11c^+ phenotype of exudate macrophages (exMac)
dose dependence of EP67-induced changes in BAL populations ([1]; mouse, in vivo): displayed a strict dose-response
time course of the EP67 response in BAL cells ([1]; seven days post EP67 administration): the neutrophils were largely lost
influenza-induced weight loss (influenza A/A/PR/8; treated one day after infection): displayed significant protection from influenza-induced weight loss
influenza-induced weight loss (influenza A/A/PR/8; treated the day before infection or the day of infection): lost significantly less weight than the non-treated animals
anti-influenza Abs in serum [2]: a high concentration of anti-influenza Abs was found in each group
cutaneous lesion size (CA-MRSA strain USA300; CD1 mice, 250 μg s.c., 48 h post-bacterial inoculation, compared to sEP67): significantly reduced
bacterial load (CFU) within lesions (CA-MRSA strain USA300; CD1 mice, 5 days post-inoculation, compared to sEP67 or PBS): significant reduction in bacterial load
lesion size (CA-MRSA strain USA300; CD88−/− mice, EP67 versus sEP67): no difference in lesion size
lesion size (CA-MRSA strain USA300; CD-1 mice given isotype IgG control antibody, compared to sEP67): significant reduction in lesion size
lesion size (CA-MRSA strain USA300; neutropenic CD-1 mice (RB6-8C5 monoclonal antibody), EP67 versus sEP67): no quantifiable difference in lesion size
lesion size (CA-MRSA strain USA300; wild-type CD88+/+ C57Bl/6 mice, compared to sEP67): significantly smaller lesions
IL-6 level in skin lesion homogenate [3, 7]: Significantly higher levels
murine KC level in skin lesion homogenate [3, 7]: Significantly higher levels
INF-γ production ([3]; during MRSA infection): increase
TNF-α production ([3]; during MRSA infection): increase
histopathologic analysis of skin tissue (neutrophils): massive influx of inflammatory cells, including neutrophils
myeloperoxidase (MPO) level, accumulating neutrophils (neutrophils; skin homogenates, 250 μg s.c. twice, compared to sEP67): significantly higher
effect on bacterial growth (OD600) (E. coli strain DHSα; 500 μg/ml, start OD600 0.03, LB or TSB): induces direct bacteriostatic/bacteriocidal effects
effect on log phase growth (OD600) (E. coli strain DHSα): significantly reduce and/or stop log phase growth
effect on bacterial growth (OD600) [4]: dose dependent inhibitory effect
protection against GBS infection (cfu/g in brain and blood) (GBS): protects against GBS infections in the central nervous system
bacterial burdens within the biofilm and surrounding tissue [5]: significant decrease in bacterial burdens within the biofilm and surrounding tissue
BAL exMAcs and neutrophils (BAL cells): showed a similar increase in BAL exMAcs and neutrophils to the uninfected animals treated with EP67
exMAcs and neutrophils in the alveolar space (exMAcs and neutrophils): induces a large population of exMAcs and neutrophils into the alveolar space

Tyr-Ser-Phe-Lys-Pro-Met-Pro-Leu-(D-Ala)-Arg (YSFKPMPL[dA]R) [EP54, C5a C-terminal decapeptide agonist analog]
antibody response to inoculation (MUC1 epitope): no appreciable increase in antibody response

YSFKPMPLaRKQGGFLGL (YSFKPMPL[dA]RKQGGFLGL; listed as Homo sapiens) [peptide 4]
antibody response to inoculation (MUC1 epitope): immune responses were not produced
antibody response to inoculation (MUC1 epitope; listed as MUC1 epitope conjugated to the C5a agonist peptide at its C-terminus): no appreciable increase in antibody response
